Measured values published in patent US7294633B2, “Oxazolo-and furopyrimidines and their use in medicaments against tumors” (Novartis AG, priority 2001, dated 2007).

- melting point: 64 to 84 °C
SMILES: C[C@@H](Nc1ncnc2oc(-c3cccc(N)c3)cc12)c1ccccc1 [Example 13, 4-(1R-phenylethylamino)-6-(3-aminophenyl)furo[2,3-d]pyrimidine]
